# Experimental data from patent US11419902B2, “Compositions comprising bacterial strains” (4D Pharma Research Limited, priority 2018, dated 2022).
# Columns and labels:
# MAP2 = MAP2 gene expression in SKMEL2 cell line (qPCR); format: cell-based; conditions: SKMEL2, relative to both negative controls (cell line only, and YCFA+)
# Description: Cells were plated in 12-well plates at density of 2×10^5 cells/well. After 24 h cells were treated with either DMSO or Vemurafenib (662005; EMD Millipore; VEMU; SKMEL28, SKMEL31, 451Lu, HT29 (1 μM) SKMEL2 (10 μM) or Azacytidine-C (A3656; Sigma Aldrich; AzaC; 5 μg/ml) or both drugs (VEMU+Aza) together, in presence of 10% bacteria supernatants or absence of it (YCFA+). Total RNA was extracted using the RNeasy mini kit (Qiagen, Manchester, UK) according to the manufacturer's instructions, and the RNA concentration was determined by spectrophotometer at 260/280 nm (NanoDrop ND-1000; Thermo Fisher Scientific, Loughborough). For mRNA expression analysis, cDNA was prepared from 2000 ng of total RNA using the High-Capacity cDNA reverse transcription kit (Thermo Fisher, Loughborough) according to the manufacturer's instructions. The reverse transcription reactions were performed in a thermocycler (Biometra, Germany) at 25° C. for 10 min, 37° C. for 120 min, and 85° C. for 5 min Resulting cDNA was amplified in duplicates by the SYBR-Green PCR assay, and products were detected on QuantStudio 6 flex real-time PCR machine (Applied Biosystems, UK) using a standardised profile (initial denaturation of 95° C. for 10 minutes, followed by 40 cycles of 10 seconds of denaturation at 95° C. and 30 seconds of annealing/extension at 65° C.). […]
# TLR-4, CD11b = experiment: Gene expression of inflammatory markers in brain tissue (qPCR); format: in vivo, BALBc mice; conditions: oral gavage 1×10^9 CFU for 6 consecutive days
# Description: BALBc (Envigo, UK) adult male mice were group housed under a 12 h light-dark cycle; standard rodent chow and water were available ad libitum. All experiments were performed in accordance with European guidelines following approval by University College Cork Animal Ethics Experimentation Committee. Animals were 8 weeks old at the start of the experiment.
# Animals were allowed to habituate to their holding room for one week after arrival into the animal unit. They receive oral gavage (200 μL dose) of live biotherapeutics at a dose of 1×10^9 CFU for 6 consecutive days between 15:00 and 17:00. On day 7, the animals are decapitated, and tissues are harvested for experimentation. […]
# Total RNA was extracted using the mirVana™ miRNA Isolation kit (Ambion/Llife technologies, Paisley, UK) and DNase treated (Turbo DNA-free, Ambion/life technologies) according to the manufacturers recommendations. RNA was quantified using NanoDrop™ spectrophotometer (Thermo Fisher Scientific Inc., Wilmington, Del., USA) according to the manufacturer's instructions. RNA quality was assessed using the Agilent Bioanalyzer (Agilent, Stockport, UK) according to the manufacturer's procedure and an RNA integrity number (RIN) was calculated. […] Quantitative PCR was carried out using probes (6 carboxy fluorescein—FAM) designed by Applied Biosystems to mouse specific targeted genes, while using β-actin as an endogenous control. […]
substance,measurement,setting,value
Megasphaera massiliensis MRx0029,MAP2 gene expression,MAP2,increased MAP2 gene expression
same,expression of CD11b in the amygdala,"TLR-4, CD11b",increased expression of CD11b
same,expression of TLR-4 in the amygdala,"TLR-4, CD11b",significantly increased the expression of TLR-4
